Source: patent publication US20210121438A1, “METHODS FOR TREATING OR PREVENTING CONFORMATION DISEASES AND METHODS FOR DRUG SCREENING” (GARAGE BRAIN SCIENCE CO., LTD, priority 2018, published 2021)

Key:
[1] = system: TDP-43 in cells expressing progeria proteins; test: Localization of TDP-43 in progeria-expressing cells (immunofluorescence); type: cell-based
Protocol: Immunohistochemistry: Fluorescence staining was performed as described previously (Wang et al., 2012). Cells were transfected with or without plasmids or siRNAs and grown for 24 to 48 hr. Cells were fixed with 3.7% paraformaldehyde in PBS at RT for 15 min and then permeabilized with 0.1% Triton X-100. The fixed cells were incubated with primary antibodies at RT for 2 hr followed by incubation with Cy2- or Cy3-labeled secondary antibodies (Molecular Probes). Slides were mounted using Vectashield DAPI H-1200 (Vector). Cellular fluorescence images were collected using an LSM710 META laser-scanning confocal microscope (Zeiss).
To further characterize whether TDP-43 proteins are present in the nuclear matrix, consisting of proteins such as lamina A/C, we double-stained TDP-43 (green) with lamina A/C (red) (FIG. 7). The TDP-43 fibrogranular framework was partially connected to lamina A/C (FIG. 7a, the arrow indicates the colocalization area). As defective lamin A can cause progeria and the a premature aging disorder HGPS, overexpression of progeria proteins is considered a cell model of aging and allowed us to explore the mechanistic link between TDP-43 and aging or a lamin A pathology. We thus overexpressed progeria proteins and examined TDP-43 localization, the efficiency of TDP-43PLD-mediated exon 9 skipping and TDP-43 polymers. […]

SMA mice (Smn−/−SMN2+/−) = test: Motor function tests in SMA mice (turnover, tube, negative geotaxis); type: in vivo
Excerpt: Mice: A mouse model of SMA was produced by deleting exon 7 of the Smn gene and knock-in of the human SMN2 gene (Smn−/−SMN2+/−). We were able to generate a variant that presents a more severe disease symptomatology through back-crossing to obtain a more homogenous genetic background. This model of severe SMA harbors two copies of the SMN2 transgene (Smn−/−SMN2+/−). The mouse model of SMA was generated through crossing the heterozygous knockout mice (Smn+/−SMN2−/−) with the homozygous knockout mice carrying two copies of the SMN2 transgene (Smn−/−SMN2+/+). SMA mice were subjected to daily intraperitoneal injections of baicalein (40 mg/kg/d in alcohol) or alcohol alone (control) from birth and then subjected to motor function tests and survival analysis. Three behavioral tests, the turnover test, tube test and negative geotaxis test, were conducted to evaluate the motor function of mice with SMA (Smn−/−SMN2+/−) and heterozygous littermates (Smn+/−SMN2+/−), as previously described. In the turnover test, the time required for a mouse to right itself and place all four paws on the ground from a prone position was recorded (the cutoff time was 60 s). The tube test was used to determine hind limb strength according to the posture of the hind limbs and the tail; scores ranged from 0 (the worst) to 4 (the best). In the negative geotaxis test, mice were placed on a 45° incline with their head pointing downward. The responses (turning and climbing) were scored from 0 (the worst) to 4 (the best).
A mouse model of SMA received daily intraperitoneal injections of baicalein ([…]) from birth, and we then assessed the animals using motor function tests and survival analyses to determine whether the in vitro findings were recapitulated in a mouse model in vivo (FIG. 10i). However, after baicalein treatment, the functional performance of SMA mice, including righting time, tube score, and tilting score, was improved at the 6th postnatal day (p<0.05), and the results were similar to heterozygous littermates treated with or without baicalein. […] Our studies provide a method for restoring the functional SMN protein by modulating the folding of the SMNA7 C-terminus and SMA-associated mutants to ensure that the protein performs the cellular functions of full-length SMN.

[2] = system: progeria-expressing cells; test: Nuclear shape in progeria-expressing cells (anti-lamin A/C immunostaining); type: cell-based; details: progeria-expressing cells (HGPS model)
TDP-43 polymers = molecular target: T1, TDP-43 polymers (Homo sapiens, UniProt Q13148); test: Western blotting of TDP-43 polymers in nuclear, cytosolic and urea fractions; type: cell-based
T1 construct: endogenous in cells; host or cells: 293T
Protocol: Solubility Assay of TDP-43 and p53: Cells with or without transfection of TDP-43-FL or TDP-43-Q303P were lysed with RIPA buffer (50 mM Tris, 150 mM NaCl, 1 mM EDTA, 1% NP-40, pH 7.4), and the lysate was further fractionated by centrifugation at 16,000 g for 5 min at 4° C. The insoluble pellets were then dissolved in 8 M urea/50 mM Tris (pH 8.0). The proteins were identified by Western blotting using a polyclonal TDP-43 antibody or a monoclonal p53 antibody.
TDP-43 proteinopathies in FTLD/ALS with the VCP/97 mutation R155H have been characterized. The VCP/97 mutation R155H alters the functions of VCP/97, redistributes TDP-43 to the cytosol, and leads to form-insoluble aggregates of TDP-43.

[3] = SMA mice, daily intraperitoneal baicalein 13.6 mg/kg/d from birth, 6th postnatal day, p<0.05

T1 sequence (Q13148 whole entry): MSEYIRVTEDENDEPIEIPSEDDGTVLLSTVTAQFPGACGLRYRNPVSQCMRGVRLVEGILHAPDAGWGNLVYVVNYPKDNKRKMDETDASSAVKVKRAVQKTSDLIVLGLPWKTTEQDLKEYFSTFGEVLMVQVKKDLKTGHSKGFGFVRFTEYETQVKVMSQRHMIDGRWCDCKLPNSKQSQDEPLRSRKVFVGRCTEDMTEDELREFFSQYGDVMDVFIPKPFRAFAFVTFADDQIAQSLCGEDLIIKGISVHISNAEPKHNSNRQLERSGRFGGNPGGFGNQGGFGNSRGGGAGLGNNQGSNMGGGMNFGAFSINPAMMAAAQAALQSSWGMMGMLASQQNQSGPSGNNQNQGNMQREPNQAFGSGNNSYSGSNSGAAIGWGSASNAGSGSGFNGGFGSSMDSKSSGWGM

In the case of `O=c1cc(-c2ccccc2)oc2cc(O)c(O)c(O)c12` [baicalein], the “nuclear localization of TDP-43” value [1] is reported as “significantly induced the retention of nuclear TDP-43”, the “functional performance in the tube test versus control SMA mice” value (SMA mice (Smn−/−SMN2+/−); 8th postnatal day, p=0.009) is reported as “better than that of the control SMA mice” and the “functional performance better than control SMA mice in the negative geotaxis test” value (SMA mice (Smn−/−SMN2+/−); 8th postnatal day, p=0.58) is reported as “not”. The “righting time (turnover test)” value (SMA mice (Smn−/−SMN2+/−); [3]) was “improved”, the “tilting score (negative geotaxis test)” value (SMA mice (Smn−/−SMN2+/−); [3]) was “improved” and the tube score (SMA mice (Smn−/−SMN2+/−); [3]) was “improved”. The nuclear shape defects [2] was “corrected nuclear shape defects in HGPS”, the “TDP-43 polymers in nuclear fraction” value (TDP-43 polymers; 293T cells, 0, 25 or 50 μM baicalein) was “compensatory increase in the nuclear fraction” and the TDP-43 polymers (TDP-43 polymers; baicalein-treated VCP/p97 R155H cells) was “increased TDP-43 polymers”.
